From PubChem BioAssay AID179 (DTP/NCI, 2004)
pEC50, pIC50: −log10 of the molar value. Calls of active or inactive are those of the source.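 How the source made its calls: active means compounds giving half or more protection of infected cells from virus-caused growth loss, again on retest; inactive means the rest.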

Tested on: CEM cells HIV-1 protection, formazan growth assay
Assay: NCI AIDS Antiviral Assay
Conditions: for pIC50: measured here: growth of uninfected CEM cells
Outline: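 CEM (human) cells, HIV-1 infected vs uninfected, 5-point dosing, formazan growth read-out. Retest threshold 50% protection.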

CS[C@]12[C@@H]3C(=O)N(C)C(=O)[C@@H]3[C@](C)(C(=O)N1C)C(=O)N2c1ccccc1
pEC50: < 3.70
pIC50: < 3.70

COc1cc([C@H]2CC(=O)C[C@@H](c3cc(OC)c(OC)c(OC)c3)C23C(=O)c2ccccc2C3=O)cc(OC)c1OC
pEC50: < 3.70
pIC50: < 3.70

S=c1[nH]c(=S)c2nnn(-c3ccccc3)c2[nH]1
pEC50: < 3.86
pIC50: 3.90

N#CI1OC(=O)c2ccccc21
pEC50: < 3.70
pIC50: < 4.00

CC(OC(C)(C)C)[C@H](NC(=O)OCC(Cl)(Cl)Cl)C(=O)O (stereo partly specified)
pEC50: < 3.70
pIC50: < 3.70

CC1(C)OCC(C2OC3OC(C)(C)OC3C2OC(=S)SSC(=S)OC2C(C3COC(C)(C)O3)OC3OC(C)(C)OC32)O1 (stereo unspecified)
pEC50: < 3.70
pIC50: 4.78

c1ccc(N=c2sc3ccccc3sc2=Nc2ccccc2)cc1
pEC50: < 3.70
pIC50: 5.51

CCCCCCCCCC[C@@H](OC(C)=O)[C@@H]1CC[C@@H]([C@@H]2CC[C@@H]([C@@H](O)CC#C/C=C/CCCCCCC[C@@]3(Sc4ccccc4)C[C@H](C)OC3=O)O2)O1
pEC50: < 3.70
pIC50: 3.74

O=c1[nH]c2ccccc2nc1/C=C\NC(=S)Nc1cc(Cl)ccc1Cl
pEC50: < 3.70
pIC50: 3.95

CCN(CC)CC(C(=O)Nc1c(C)cccc1C)/C(C)=N/NC(N)=S (stereo unspecified)
pEC50: < 4.43
pIC50: < 4.43

COC(=O)C1C2CC3C(OC(=O)C31)C2I (stereo unspecified)
outcome: inactive

O=c1oc2ccccc2c2nc3ccccc3cc12
outcome: inactive

c1cc(C[S+]2CCCC2)ccc1C[S+]1CCCC1
pEC50: < 4.00
pIC50: < 4.00

N#CCC1COc2ccccc2O1 (stereo unspecified)
pEC50: < 3.70
pIC50: < 3.70

Cn1cc(N)cc1C(=O)Nc1cc(C(=O)Nc2cc(S(=O)(=O)O)c3cc(S(=O)(=O)O)cc(S(=O)(=O)O)c3c2)n(C)c1
pEC50: 4.27
pIC50: 3.47

OCC1C2CCC3(OCCO3)C12 (stereo unspecified)
pEC50: < 3.70
pIC50: < 3.70

Cc1sc2nc3n(c(=O)c2c1C)N=C(c1ccc([N+](=O)[O-])cc1)CS3
pEC50: < 3.70
pIC50: < 3.70

N#Cc1cc2c(cc1Cl)Sc1nccn1S2(=O)=O
pEC50: < 3.70
pIC50: 6.07

O=C1/C(=N\N(C(=O)c2ccccc2)c2ccccc2)c2cccc3cccc1c23
pEC50: < 5.42
pIC50: < 5.42

CCOC(=O)/C(C#N)=C/c1ccc(-c2ccccc2)cc1
pEC50: < 4.59
pIC50: < 4.59

Nc1ccc(/C=C2\C=Cc3ccccc32)cc1
pEC50: < 3.70
pIC50: 4.55

C=C(CO)[C@H]1Oc2ccc(C(C)=O)cc2[C@@H]1O
pEC50: < 3.70
pIC50: < 3.70

CC(C)OP(=O)(OC(C)C)C1=NN(c2ccc([N+](=O)[O-])cc2)C(N)(N)S1
pEC50: < 3.21
pIC50: 3.87

O=C1/C(=C\c2cccc(Oc3ccccc3)c2)SC(c2ccccc2)N1c1cccc(Cl)c1 (stereo unspecified)
pEC50: < 3.70
pIC50: 4.79

CC(=O)C(=[N+]=[N-])C(=O)OCCOC(=O)C(=[N+]=[N-])C(C)=O
pEC50: < 3.70
pIC50: < 3.70

C[N+](C)(C)CC(=O)N/N=C(/Cc1nc2c3c(ccc2[nH]c1=O)C(=O)c1ccccc1C3=O)C(=O)Nc1ccc(Cl)c(Cl)c1
pEC50: < 4.68
pIC50: < 4.68

CNC(=O)CCCNC(=O)CCCC(=O)OC
pEC50: < 3.70
pIC50: < 3.70

CCOC(=O)[C@@H]1[C@@H](c2ccccc2)N(C)O[C@@]1(c1ccccc1)C(F)(F)F
pEC50: < 3.70
pIC50: 4.32

C/C(CC(=O)Nc1ccc([N+](=O)[O-])cc1)=N\NC(N)=O
pEC50: < 3.33
pIC50: < 3.33

COC(=O)CCC(=O)CC(=O)C(=O)Nc1c(Cl)cc([N+](=O)[O-])cc1Cl
pEC50: < 4.74
pIC50: < 4.74

CC(=O)[O-].CC(=O)[O-].[Mn+2].c1ccc(/C(=N\Nc2ccccn2)c2ccccn2)cc1
outcome: inactive

CN(CCN1C(=O)c2cccc3cc(N)cc(c23)C1=O)CCN1C(=O)c2cccc3cc(N)cc(c23)C1=O
pEC50: < 4.66
pIC50: 6.81

CCSCCCCCCCCCCC(=O)O
pEC50: < 3.70
pIC50: 4.20

COc1ccccc1NC(=S)/N=C/c1c(O)cc(C)oc1=O
pEC50: < 3.70
pIC50: < 3.70

O=c1sc2ccccc2n1CC1CS1 (stereo unspecified)
pEC50: < 3.52
pIC50: 4.96

Oc1c(N2CCOCC2)cc(-c2cc(N3CCOCC3)c(O)c3ccccc23)c2ccccc12
pEC50: < 4.58
pIC50: 5.44

OCCCN=C1N=C(Cl)/C(=C\c2ccccc2)N1
pEC50: < 3.70
pIC50: < 3.70

COC(=O)/C(C#N)=C(\Nc1ccccc1)N1CCOCC1
pEC50: < 3.70
pIC50: < 3.70

COC(=O)C1(C)OC(C)=NC1(C(=O)OC)C(=O)OC (stereo unspecified)
pEC50: < 3.70
pIC50: < 3.70

CN1C(=O)C2CCCN2C(=O)C1(C)NC(=O)OCc1ccccc1 (stereo unspecified)
pEC50: < 3.57
pIC50: < 3.57

Cn1cnc2c1c(=O)n(CCNCCO)c(=O)n2C
pEC50: < 3.70
pIC50: < 3.70

CCCCCCCNC1=C(O)c2ccccc2C(=O)C1=O
pEC50: < 3.70
pIC50: 4.26

CCC[CH2][Sn]([Cl])([CH2]CCC)[CH2]CCC
outcome: inactive

COC(=O)C1=C(O)c2cc(C)c(C)c(C#N)c2NC(=O)C1
pEC50: < 3.70
pIC50: < 3.70

O=C(O)[C@@H]1C[C@@H](O)CN1C(=O)OCc1ccccc1
outcome: inactive

C=CCC1(O)C(=O)OC2C(O)COC21O (stereo unspecified)
pEC50: < 3.70
pIC50: < 3.70

C#CCn1c(=O)c2ccccc2n(CC#C)c1=O
pEC50: < 3.70
pIC50: < 3.70

C/C(CC(=O)Nc1ccc(Cl)c(Cl)c1)=N/NC(=O)C[N+](C)(C)C
pEC50: < 4.46
pIC50: < 4.46

C1CCN2CC34CC(CC5CCCN(C6CCCC3N6)C54)C2C1 (stereo unspecified)
pEC50: < 3.51
pIC50: < 3.51

COc1ccc(C(O)C2c3c(cc4c(c3OC)OCO4)CCN2C)c(CO)c1OC (stereo unspecified)
outcome: inactive

O=C1OC2C=CCC1C2 (stereo unspecified)
pEC50: < 3.70
pIC50: < 3.70

CCC1(CCC#N)CCC(N)=CC1=O (stereo unspecified)
pEC50: < 3.70
pIC50: < 3.70

CCOC(=O)Cn1c(=O)n(C)c(=O)c2c1ncn2Cc1ccccc1
pEC50: < 3.14
pIC50: 3.37

CCN(CC)CCOC(=O)c1ccc(N=NC2Sc3nc4ccccc4n3C2=O)cc1 (stereo unspecified)
outcome: inactive

CC1(Br)C(=O)NC(=O)N(C2C=CC(CO)O2)C1O (stereo unspecified)
pEC50: < 3.70
pIC50: < 3.70

Cn1c(=O)c2c(nc3n(C)c(=O)c4ccccc4n23)n(C)c1=O
pEC50: < 3.70
pIC50: 5.60

CCCCCCCCCCN(CCCCCCCCCC)CC(=O)Nc1ccc(S(=O)(=O)c2ccc(NC(=O)CN(CCCCCCCCCC)CCCCCCCCCC)cc2)cc1
pEC50: < 4.30
pIC50: 5.52

O=C(c1cccc(C(=O)c2ccc3c4c(cccc24)C(=O)N(c2ccccc2)C3=O)c1)c1ccc2c3c(cccc13)C(=O)N(c1ccccc1)C2=O
pEC50: < 3.70
pIC50: < 3.70

CCN(CC)c1c(C(=O)/C=C/c2ccccc2)c(-c2ccccc2)nn(C)c1=O
pEC50: < 4.73
pIC50: 5.04

O=C(/C(=C/c1cccc([N+](=O)[O-])c1)c1ccccc1)c1ccccc1
pEC50: < 5.22
pIC50: 5.39

NC(CSS(=O)(=O)O)=NCCc1ccccc1
pEC50: < 3.70
pIC50: 3.96

CNC(=S)N(C)C(=S)Nn1c(=O)c(C)nn(C)c1=S
pEC50: 4.73
pIC50: < 3.70

O=C(OCC12CC3CC(CC(C3)C1)C2)c1ccc(NCc2cc(O)ccc2O)cc1
pEC50: < 5.70
pIC50: 5.75

O=C(NNc1ccccc1)NNc1ccccc1 (tested in a mixture with another compound)
pEC50: < 3.70
pIC50: 4.50

O=C(OCCN=C1c2ccccc2CCc2ccccc21)c1ccccc1
pEC50: < 3.70
pIC50: < 3.70

Nc1nc(Cl)cc(NCC2(CO)CC(c3ccccc3)C2)n1 (stereo unspecified)
pEC50: < 4.70
pIC50: 5.80

FC(F)(F)c1nc(Cl)nc2nc[nH]c12
pEC50: < 3.70
pIC50: 4.01

COc1ccc(CN=CN/C(C#N)=C(\N)C#N)cc1OC
pEC50: < 3.70
pIC50: < 3.70

O=C1CC[C@H]2CO[C@H](c3ccccc3)N12
pEC50: < 3.70
pIC50: < 3.70

COc1cc2c3c(n(C)c(=O)c2cc1OC)-c1cc2c(cc1C3=O)OCO2
pEC50: < 4.84
pIC50: 6.05

O=C1/C(=C/c2ccc(O)c([N+](=O)[O-])c2)CCC/C1=C\c1ccc(O)c([N+](=O)[O-])c1
pEC50: < 3.70
pIC50: 4.93

OCCN(CCO)c1nc(N(CCO)CCO)nc(N(CCO)CCO)n1
pEC50: < 3.70
pIC50: < 3.70

NC1=NCC(CN2CCCC2)O1 (stereo unspecified)
pEC50: < 3.70
pIC50: < 3.70

CC(=O)N/C(=C\c1ccc(/C=C(\NC(C)=O)C2=NC3C(=O)c4ccccc4C(=O)C3N2)cc1)C1=NC2C(=O)c3ccccc3C(=O)C2N1 (stereo unspecified)
outcome: inactive

N#CC1(C=O)c2ccccc2C=CN1C(=O)c1ccccc1 (stereo unspecified)
pEC50: < 4.04
pIC50: < 4.04

Clc1ccc(-c2onc3ccc(Br)cc23)cc1
pEC50: < 3.79
pIC50: < 3.79

O=C1CC2C(C1Nc1ccccc1)C1C(=Nc3ccccc3)C(Nc3ccccc3)=CC1N2c1ccccc1 (stereo unspecified)
pEC50: < 4.99
pIC50: < 4.99

CC1(Br)Cc2ccccc2C1=O (stereo unspecified)
outcome: inactive

Nc1c(-c2ccc(Cl)cc2Cl)[n+]([O-])c2ccccc2[n+]1[O-]
outcome: inactive

COc1ccc2nc3cccc([N+](=O)[O-])c3c(NC(C)CN(C)C)c2c1 (stereo unspecified)
pEC50: < 4.70
pIC50: 5.64

COc1ccc(C2N(c3ccc(F)c([N+](=O)[O-])c3)C(=O)N3C(c4ccc(OC)cc4)N(c4ccc(F)c([N+](=O)[O-])c4)C(=O)N23)cc1 (stereo unspecified)
pEC50: < 3.70
pIC50: 4.47

CCCCn1c(-c2ccccc2)cs/c1=N\Nc1nc2c(c(=O)n(C)c(=O)n2C)n1C
pEC50: < 3.70
pIC50: 4.97

CN(C)CC1CCCCC(CN(C)C)C1=O (stereo unspecified)
outcome: inactive

Cc1nc(N)nc(N)c1CCCCc1ccc(N)cc1
outcome: inactive

O=C(Nc1ccccc1-c1nn(C(=S)Nc2ccccc2)c(=S)n(C(=S)Nc2ccccc2)c1=O)C(F)(F)F
outcome: inactive

O=C(Nc1cccc(-c2nc3ccccc3[nH]2)c1)c1ccc(C(=O)Nc2cccc(-c3nc4ccccc4[nH]3)c2)cc1
pEC50: < 3.70
pIC50: 4.04

COC(=O)C(=O)C(C(=O)C(=O)Nc1cc(C)ccc1C)c1nc2ccccc2[nH]c1=O (stereo unspecified)
pEC50: < 3.23
pIC50: 3.56
